Key:
ROCK1 = biological target: T1, ROCK1 (Homo sapiens, UniProt Q13464); test: KINOMEscan KdELECT kinase binding assay, ROCK1; details: equilibrium dissociation constant, 11-point 3-fold dilution series
T1 construct: purchased DiscoverX (KINOMEscan KdELECT service); host or cells: E. coli BL21-derived (T7 phage) or HEK-293
Description: (§1) The ROCK1 and ROCK2 kinase binding affinities of compounds in this invention were determined by DiscoverX's KINOMEscan™ KdELECT technology (https://www.discoverx.com/kinomescan-elect-kinase-screening-and-profiling-services): Kinase-tagged T7 phage strains were prepared in an E. coli host derived from the BL21 strain. E. coli were grown to log-phase and infected with T7 phage and incubated with shaking at 32° C. until lysis. The lysates were centrifuged and filtered to remove cell debris. The remaining kinases were produced in HEK-293 cells and subsequently tagged with DNA for qPCR detection. Streptavidin-coated magnetic beads were treated with biotinylated small molecule ligands for 30 minutes at room temperature to generate affinity resins for kinase assays. The liganded beads were blocked with excess biotin and washed with blocking buffer (SeaBlock (Pierce), 1% BSA, 0.05% Tween 20, 1 mM DTT) to remove unbound ligand and to reduce nonspecific binding. […] Test compounds were prepared as […] in 100% DMSO. Kds were determined using an […] 3-fold compound dilution series with three DMSO control points. […] The compounds were then diluted directly into the assays such that the final concentration of DMSO was 0.9%. All reactions performed in polypropylene 384-well plate. Each was a final volume of 0.02 ml. […] The kinase concentration in the eluates was measured by qPCR.

ROCK2 = biological target: T2, ROCK2 (Homo sapiens, UniProt O75116); test: KINOMEscan KdELECT kinase binding assay, ROCK2; details: equilibrium dissociation constant, 11-point 3-fold dilution series
T2 construct: purchased DiscoverX (KINOMEscan KdELECT service); host or cells: E. coli BL21-derived (T7 phage) or HEK-293
T2 sequence (O75116 whole entry): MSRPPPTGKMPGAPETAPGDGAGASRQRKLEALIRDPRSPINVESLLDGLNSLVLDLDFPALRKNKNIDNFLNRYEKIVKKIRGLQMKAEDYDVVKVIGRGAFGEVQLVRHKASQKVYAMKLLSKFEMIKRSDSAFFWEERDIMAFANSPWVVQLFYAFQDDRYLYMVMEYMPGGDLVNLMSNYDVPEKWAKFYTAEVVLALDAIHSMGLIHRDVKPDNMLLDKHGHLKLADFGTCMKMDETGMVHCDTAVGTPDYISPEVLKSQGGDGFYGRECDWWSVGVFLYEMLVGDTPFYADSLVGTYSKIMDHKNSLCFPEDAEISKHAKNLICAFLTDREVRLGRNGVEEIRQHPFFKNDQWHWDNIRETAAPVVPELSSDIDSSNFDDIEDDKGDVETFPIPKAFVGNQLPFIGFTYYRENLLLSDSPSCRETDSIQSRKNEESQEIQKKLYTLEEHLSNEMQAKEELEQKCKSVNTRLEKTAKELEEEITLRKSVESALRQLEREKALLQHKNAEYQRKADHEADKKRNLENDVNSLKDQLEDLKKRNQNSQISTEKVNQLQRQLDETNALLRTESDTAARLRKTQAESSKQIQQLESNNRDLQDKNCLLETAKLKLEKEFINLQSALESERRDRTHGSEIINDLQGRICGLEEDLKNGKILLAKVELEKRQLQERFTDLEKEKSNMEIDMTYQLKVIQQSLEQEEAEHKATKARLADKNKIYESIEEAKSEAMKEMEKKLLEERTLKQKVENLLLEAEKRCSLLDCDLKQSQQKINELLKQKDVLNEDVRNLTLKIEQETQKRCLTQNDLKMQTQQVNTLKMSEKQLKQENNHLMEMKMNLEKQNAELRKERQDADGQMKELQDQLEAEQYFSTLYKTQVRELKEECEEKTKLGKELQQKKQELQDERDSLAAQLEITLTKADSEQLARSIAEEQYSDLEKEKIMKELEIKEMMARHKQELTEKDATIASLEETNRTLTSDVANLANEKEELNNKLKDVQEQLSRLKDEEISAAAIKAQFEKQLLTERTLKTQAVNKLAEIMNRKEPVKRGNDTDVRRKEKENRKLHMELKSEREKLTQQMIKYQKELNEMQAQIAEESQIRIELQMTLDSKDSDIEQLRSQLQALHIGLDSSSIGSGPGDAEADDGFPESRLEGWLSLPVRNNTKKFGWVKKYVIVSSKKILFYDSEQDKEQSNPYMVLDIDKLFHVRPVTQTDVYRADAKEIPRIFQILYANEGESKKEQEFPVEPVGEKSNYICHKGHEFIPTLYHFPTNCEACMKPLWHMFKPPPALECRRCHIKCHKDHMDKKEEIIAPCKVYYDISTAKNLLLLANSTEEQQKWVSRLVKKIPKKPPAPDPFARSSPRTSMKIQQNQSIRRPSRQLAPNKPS
Description: as §1

male CD-1 mice = test: Mean arterial pressure after bile duct ligation in CD-1 mice; format: in vivo; details: BDL CD-1 mice, 10 mg/kg orally BID for 10 days, carotid catheter under isoflurane
Description: The experiments were performed on male CD-1 mice (10-11 week-old), purchased from Charles River Laboratories, MA. After arrival, the animals were housed in the Angion Biomedica animal care facility and allowed 5 days for acclimatization in room having an ambient temperature of 23±2° C. and 12 hr dark/light cycle. The animals were fed normal rodent chow and tap water was provided ad libitum. All the animal experimental protocols were approved by the Institutional Animal Care and Use Committee at the Angion Biomedica.
For bile duct ligation (BDL), we performed midline laparotomy of a length of approximately 1.5-2 cm by cutting the cutis plus fascia with a blunt end surgical scissor. The bile duct was then exposed by caudal movement of the gut. […] Animals were allowed to recover under heating pads and were monitored closely for signs of discomfort or pain.
After 24 hrs of bile duct ligation, the CD-1 mice (N=8-10 per group,) were treated with normal saline as vehicle and the Fasudil (10 mg/kg/body weight) and Compound of Ex. 1 (10 mg/kg body weight) groups were treated orally (BID) for 10 days. […] After 10 days of treatment, animals were anesthetized and mean arterial pressure was measured.
Mice were anaesthetized using isoflurane. […] The animals were maintained on heating pads throughout the surgery and temperature was recorded by inserting a temperature probe in the rectum. […]

[1] = system: BDL model, adult male C57BLU6 mice; test: Biliary obstruction model (bile duct ligation, BDL); format: in vivo; details: 10 mg/kg PO BID; for MAP (mean arterial pressure) versus sham and BDL+vehicle: BDL C57BLU6 mice, day 9, FIG. 1
Description: Adult male C57BLU6 mice were submitted to standard bile duct ligation (BDL model: Luo, W., Meng, Y., Ji, H. L., Pan, C. Q., Huang, S., Yu, C. H., Xiao, L. M., Cui, K., Ni, S. Y., Zhang, Z. S., Li, X. Spironolactone lowers portal hypertension by inhibiting liver fibrosis, ROCK-2 activity and activating NO/PKG pathway in the bile-duct-ligated rat. PLoS One 2012, 7(3), e34230) and treated with vehicle (n=7; 50% PEG300+10% tween 80+40% saline, the formulation for Ex. 1) or Ex. 1 (n=3; 10 mg/kg, PO, BID), starting a day after BDL surgery. In this study, animals were sacrificed 9 days after BDL. A subset of BDL animals was treated with fasudil (n=2; 10 mg/kg, PO, BID) to compare hemodynamic effects (on day 9) of a ROCK2-selective inhibitor vs. a dual ROCK1/2 inhibitor in this model of liver injury/disease. A sham group served as control.
The BDL model is a model of cholestatic injury and is associated with both inflammation and biliary sclerosis. This was evident even by day 9 in the BDL+vehicle-treated cohort (p<0.01 vs. sham). […] Treatment with a compound of the invention was also associated with a reduction in biliary inflammation (H&E sections, FIG. 4A) and the necro-inflammatory score (FIG. 4B).

T1 sequence (Q13464 whole entry): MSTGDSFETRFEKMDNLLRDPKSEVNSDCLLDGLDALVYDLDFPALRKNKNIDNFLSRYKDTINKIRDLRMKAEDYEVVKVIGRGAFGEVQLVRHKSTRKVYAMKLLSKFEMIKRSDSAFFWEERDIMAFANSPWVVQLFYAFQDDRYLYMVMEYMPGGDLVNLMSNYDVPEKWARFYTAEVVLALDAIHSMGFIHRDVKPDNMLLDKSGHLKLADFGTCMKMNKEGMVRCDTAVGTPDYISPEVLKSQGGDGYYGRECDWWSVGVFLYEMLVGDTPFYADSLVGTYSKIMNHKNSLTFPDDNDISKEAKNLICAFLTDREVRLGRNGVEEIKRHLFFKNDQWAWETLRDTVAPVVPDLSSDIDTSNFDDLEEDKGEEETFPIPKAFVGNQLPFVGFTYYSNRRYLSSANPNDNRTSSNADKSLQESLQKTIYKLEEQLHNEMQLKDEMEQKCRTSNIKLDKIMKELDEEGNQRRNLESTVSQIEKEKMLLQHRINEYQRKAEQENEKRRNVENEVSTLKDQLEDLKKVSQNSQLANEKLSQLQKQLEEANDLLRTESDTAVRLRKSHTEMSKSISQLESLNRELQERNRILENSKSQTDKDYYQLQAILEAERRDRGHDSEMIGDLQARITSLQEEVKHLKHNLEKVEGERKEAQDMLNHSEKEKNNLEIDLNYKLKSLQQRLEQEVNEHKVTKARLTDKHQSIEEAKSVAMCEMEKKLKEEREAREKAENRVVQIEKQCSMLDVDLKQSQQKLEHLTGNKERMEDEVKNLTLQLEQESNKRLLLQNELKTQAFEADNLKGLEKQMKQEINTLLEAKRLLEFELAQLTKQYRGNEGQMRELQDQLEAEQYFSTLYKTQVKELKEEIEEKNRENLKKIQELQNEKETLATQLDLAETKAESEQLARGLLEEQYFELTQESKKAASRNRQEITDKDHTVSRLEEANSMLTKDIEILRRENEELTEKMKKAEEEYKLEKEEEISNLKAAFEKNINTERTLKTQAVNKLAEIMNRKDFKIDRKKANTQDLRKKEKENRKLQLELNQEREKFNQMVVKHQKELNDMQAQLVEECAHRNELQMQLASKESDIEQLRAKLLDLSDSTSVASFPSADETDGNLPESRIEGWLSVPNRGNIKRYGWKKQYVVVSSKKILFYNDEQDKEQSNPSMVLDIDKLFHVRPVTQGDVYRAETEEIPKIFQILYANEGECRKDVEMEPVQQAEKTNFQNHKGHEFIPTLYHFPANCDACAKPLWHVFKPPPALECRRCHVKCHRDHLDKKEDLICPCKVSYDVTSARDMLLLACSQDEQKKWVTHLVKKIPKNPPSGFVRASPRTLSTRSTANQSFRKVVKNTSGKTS

COc1ccc2c(c1)CN(c1nccc(-c3nccc(/C=C/c4ccncc4)n3)n1)C2 [Ex. 1, (E)-5-Methoxy-2-(4-(2-(pyridine-4-yl)vinyl)-[2,4′-bipyrimidin]-2′-yl)isoindoline]
Kd (ROCK1): > 30 µM | Kd (ROCK2): 0.14 µM | change (decrease) in mean arterial blood pressure (male CD-1 mice): did not cause any change | MAP (mean arterial pressure) versus sham and BDL+vehicle [1]: not different | biliary thickening (bile duct wall thickness) ([1]; BDL mice, day 9, H&E sections and quantitative analysis, FIG. 2 and 3): reduction in biliary thickening

COc1ccc2c(c1)CN(c1nccc(-c3nccc(/C=C/c4ccnc5ccccc45)n3)n1)C2 [Ex. 3, (E)-4-(2-(2′-(5-Methoxyisoindolin-2-yl)-[2,4′-bipyrimidin]-4-yl)vinyl)quinoline]
Kd (ROCK1): > 30 µM | Kd (ROCK2): > 30 µM

COc1ccc2c(c1)CN(c1nccc(-c3nccc(/C=C/c4ccnc5[nH]ccc45)n3)n1)C2 [Ex. 4, (E)-4-(2-(2′-(5-Methoxyisoindolin-2-yl)-[2,4′-bipyrimidin]-4-yl)vinyl)-1H-pyrrolo[2,3-b]pyridine]
Kd (ROCK1): 8 µM | Kd (ROCK2): 1.8 µM

COc1ccc2c(c1)CN(c1nccc(-c3nccc(/C=C/c4ccnc(N)n4)n3)n1)C2 [Ex. 5, (E)-4-(2-(2′-(5-Methoxyisoindolin-2-yl)-[2,4′-bipyrimidin]-4-yl)vinyl)pyrimidin-2-amine]
Kd (ROCK1): > 30 µM | Kd (ROCK2): 2 µM

Oc1ccc2c(c1)CN(c1nccc(-c3nccc(/C=C/c4ccncc4)n3)n1)C2 [Ex. 6, (E)-2-(4-(2-(Pyridin-4-yl)vinyl)-[2,4′-bipyrimidin]-2′-yl)isoindolin-5-ol]
Kd (ROCK1): > 30 µM | Kd (ROCK2): 0.12 µM

O=S(=O)(Oc1ccc2c(c1)CN(c1nccc(-c3nccc(/C=C/c4ccncc4)n3)n1)C2)C(F)(F)F [Ex. 7, (E)-2-(4-(2-(Pyridin-4-yl)vinyl)-[2,4′-bipyrimidin]-2′-yl)isoindolin-5-yl Trifluoromethanesulfonate]
Kd (ROCK1): > 30 µM | Kd (ROCK2): 0.91 µM

N#Cc1ccc2c(c1)CN(c1nccc(-c3nccc(/C=C/c4ccncc4)n3)n1)C2 [Ex. 8, (E)-2-(4-(2-(Pyridin-4-yl)vinyl)-[2,4′-bipyrimidin]-2′-yl)isoindoline-5-carbonitrile]
Kd (ROCK1): 0.68 µM | Kd (ROCK2): 0.11 µM

CN(C)CCOc1ccc2c(c1)CN(c1nccc(-c3nccc(/C=C/c4ccncc4)n3)n1)C2 [Ex. 9, (E)-N,N-Dimethyl-2-((2-(4-(2-(pyridin-4-yl)vinyl)-[2,4′-bipyrimidin]-2′-yl)isoindolin-5-yl)oxy)ethanamine]
Kd (ROCK1): 2.4 µM | Kd (ROCK2): 0.085 µM

CNC(=O)COc1ccc2c(c1)CN(c1nccc(-c3nccc(/C=C/c4ccncc4)n3)n1)C2 [Ex. 11, (E)-N-Methyl-2-((2-(4-(2-(pyridin-4-yl)vinyl)-[2,4′-bipyrimidin]-2′-yl)isoindolin-5-yl)oxy)acetamide]
Kd (ROCK1): 1.1 µM | Kd (ROCK2): 0.11 µM

CCNC(=O)COc1ccc2c(c1)CN(c1nccc(-c3nccc(/C=C/c4ccncc4)n3)n1)C2 [Ex. 12, (E)-N-Ethyl-2-((2-(4-(2-(pyridin-4-yl)vinyl)-[2,4′-bipyrimidin]-2′-yl)isoindolin-5-yl)oxy)acetamide]
Kd (ROCK1): 15 µM | Kd (ROCK2): 0.18 µM

CC(C)NC(=O)COc1ccc2c(c1)CN(c1nccc(-c3nccc(/C=C/c4ccncc4)n3)n1)C2 [Ex. 13, (E)-N-Isopropyl-2-((2-(4-(2-(pyridin-4-yl)vinyl)-[2,4′-bipyrimidin]-2′-yl)isoindolin-5-yl)oxy)acetamide]
Kd (ROCK1): 13 µM | Kd (ROCK2): 0.13 µM

Fc1ccc2c(c1)CN(c1nccc(-c3nccc(/C=C/c4ccncc4)n3)n1)C2 [Ex. 14, (E)-5-Fluoro-2-(4-(2-(pyridine-4-yl)vinyl)-[2,4′-bipyrimidin]-2′-yl)isoindoline]
Kd (ROCK1): 26 µM | Kd (ROCK2): 1.2 µM

O=S(=O)(c1cccc2cnccc12)N1CCCNCC1 [fasudil, reference compound]
change (decrease) in mean arterial blood pressure (male CD-1 mice): ~26 mm Hg | MAP (mean arterial pressure) versus sham and BDL+vehicle [1]: decreased MAP
